{"source": "patent US4397839A", "about": "“Surface active material and process for preparing same” (Tokyo Tanabe Company, Limited, priority 1981, dated 1983)", "system": "mature rabbits suffering from septicemia induced by Escherichia coli, complicated by RDS", "assay_type": "in vivo, rabbit", "procedure": "Specifically, 32 rabbits in the abovedescribed morbid state were divided into 4 groups including one control (or no-treatment) group. […] Then, all groups were comparatively examined for the degree of improvement in respiratory function. The morbid rabbits were prepared and the degree of lung injury was evaluated according to the methods of Cuevas et al. (Archives of Surgery, 104, 319, 1972), and the circulating titer of endotoxin in blood was determined according to the method of Reinhold et al. (Proceedings of the Society for Experimental Biology and Medicine, 137, 334, 1971). The treatment with the material of the invention and/or kanamycin sulfate was carried out within 24 hours before and after the onset of RDS. The material of the invention was instilled 1-6 times into the airway in a dose of 50-100 mg/kg for each treatment, while 80-150 mg/kg of kanamycin sulfate was intramuscularly injected in 2-8 divided doses. Two days after treatment, the subjects were examined for survival and the degree of lung injury. […] The degree of lung injury becomes severer as the value increases.", "note": "Where “and” joins values, the source holds several entries; their conditions need not be identical. Equal values may be shown once. Where a name gives a salt, the structure may show the parent alone."}
{"smiles": "NC[C@H]1O[C@H](O[C@H]2[C@H](O)[C@@H](O[C@H]3O[C@H](CO)[C@@H](O)[C@H](N)[C@H]3O)[C@H](N)C[C@@H]2N)[C@H](O)[C@@H](O)[C@@H]1O", "note": "[kanamycin sulfate]", "values": [{"measurement": "Circulating titer (endotoxin in blood)", "setting": "individual animals (one line per subject)", "value": "0.10 µg/mL and 0.01 µg/mL and 0.00 µg/mL and 0.40 µg/mL and 0.02 µg/mL"}, {"measurement": "Survival", "setting": "individual animals, two days after treatment", "value": "No and Yes"}, {"measurement": "Degree of lung injury", "setting": "individual animals, two days after treatment, severer as the value increases", "value": "3 and 0 and 1 and 2"}]}
